pEC50: −log10 of the molar value.
Test system: subgenomic HCV replicon in Huh-7 cells
Assay: microbe, parasite or virus in culture
Type: cell-based
Settings: Hepatitis C virus, Huh-7, 72 h, read-out: EC50 (50% inhibitory concentration) in HCV replicon cells

Structure (SMILES): [2H]C([2H])(OP(=O)(N[C@H](C)C(=O)OC(C)C)Oc1ccccc1)[C@@]1(F)O[C@@H](n2cnc3c(OCC)nc(N)nc32)[C@](C)(F)[C@@H]1O (stereo partly shown) [Compound 2]
- pEC50: > 6.00
